Test results from paper PMC4581254, “Identification of Hydroxyanthraquinones as Novel Inhibitors of Hepatitis C Virus NS3 Helicase” (International Journal of Molecular Sciences, 2015).
Counter-ions that a name gives are not always drawn. Like-named read-outs stand apart in the source and are kept apart here.

Legend:
HCV NS3 helicase [1] = target: T1, HCV NS3 helicase (Hepatitis C virus genotype 1b, UniProt P26662); test: FRET-based fluorescence helicase assay (dsRNA unwinding); type: biochemical
T1 construct: The full-length HCV NS3 protein, with serine protease and NTPase/helicase activities; made in house
T1 sequence (P26662 1027-1657): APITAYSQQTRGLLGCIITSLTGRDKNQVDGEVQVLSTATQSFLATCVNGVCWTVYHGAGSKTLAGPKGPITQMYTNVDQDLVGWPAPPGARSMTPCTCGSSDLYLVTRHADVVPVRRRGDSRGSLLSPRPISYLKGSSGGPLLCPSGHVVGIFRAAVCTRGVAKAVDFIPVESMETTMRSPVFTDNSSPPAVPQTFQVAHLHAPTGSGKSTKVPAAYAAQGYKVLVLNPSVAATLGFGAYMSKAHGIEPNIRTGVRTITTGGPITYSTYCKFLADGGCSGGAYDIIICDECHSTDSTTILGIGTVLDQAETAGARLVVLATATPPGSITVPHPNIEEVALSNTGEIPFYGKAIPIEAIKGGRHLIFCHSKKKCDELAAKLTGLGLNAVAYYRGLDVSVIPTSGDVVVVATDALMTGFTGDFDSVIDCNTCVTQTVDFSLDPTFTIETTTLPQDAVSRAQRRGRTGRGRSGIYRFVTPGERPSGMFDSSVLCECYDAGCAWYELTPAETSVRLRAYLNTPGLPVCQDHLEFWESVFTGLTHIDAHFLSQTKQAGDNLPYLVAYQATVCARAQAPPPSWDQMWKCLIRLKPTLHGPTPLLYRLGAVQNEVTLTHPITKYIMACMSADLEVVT
Protocol: A fluorescence helicase assay based on FRET [26, 27], with modifications in the fluorescent dyes, was used to examine NS3 helicase inhibition by different compounds. […] The concentration of the capture strand was optimized to 400 nM based on the Z′ value; the Z′ value validates assay conditions as having reliability and reproducibility when its value is close to 1.
The FRET-based fluorescence helicase assay was performed as described previously, with modifications in the fluorescent dyes used. The dsRNA substrate was prepared by annealing the 5′ Alexa Fluor 700-labeled fluorescence strand to the 3′ BHQ3-labeled quencher strand in a 1:2 molar ratio. The dsRNA substrate contained the 3′-overhang that is necessary for the NS3 helicase to bind to it prior to duplex unwinding. The capture strand had sequence complementary to the quencher strand and prevented the unwound duplexes from reannealing. All the nucleic acid strands had the same nucleic acid sequences as described previously and were purchased from Japan Bio Services (Saitama, Japan). The reaction mixture contained 25 mM MOPS-NaOH (pH 6.5), 3 mM MgCl2, 2 mM dithiothreitol, 4 U RNasin (Promega, Madison, WI, USA), 50 nM dsRNA substrate, 400 nM capture strand, 5 mM ATP, a serial dilution of test compounds in DMSO vehicle, and 240 nM NS3 helicase in a total reaction volume of 20 µL. The full-length HCV NS3 protein, with serine protease and NTPase/helicase activities, was expressed and purified as described previously.
The reaction was started by the addition of HCV NS3 helicase and was performed at 37 °C for 30 min in a SpectraMax Gemini XS microplate reader (Molecular Devices, Sunnyvale, CA, USA). The fluorescence intensity was recorded every 20 s for 30 min. Helicase activity was calculated as the initial reaction velocity relative to that of the control (in the absence of a test compound but presence of DMSO vehicle). The IC50 was calculated using KaleidaGraph (Synergy Software, Reading, PA, USA) by fitting plots of % activity vs. [I] using Equation (1) unless otherwise stated: (1) % Activity= 100/1+([I]/IC50)^h where h is the Hill coefficient, and [I] is the inhibitor concentration.

NS3 helicase = conditions: read-out: IC50 for NS3 helicase inhibition, cited from earlier work
HCV NS3 helicase [2] = target: T1, HCV NS3 helicase; test: Gel-based helicase assay; type: biochemical; conditions: compared with the fluorescence helicase assay, Figure S2
Protocol: A gel-based helicase assay was performed as described previously. The dsRNA substrate was prepared by annealing the 5′ Alexa Fluor 488-labeled fluorescence strand to the non-labeled complementary strand in a 1:2 molar ratio. The dsRNA substrate and the capture strand had the same nucleic acid sequences as those used in the FRET-based fluorescence helicase assay, and were purchased from Japan Bio Services. The reaction mixture for HCV NS3 helicase had the same components as those used in the FRET-based fluorescence helicase assay, with increasing concentrations of a test compound in a total reaction volume of 20 µL, except for the fact that the concentration of the capture strand was 100 nM. The reaction was started by the addition of HCV NS3 helicase and performed at 37 °C for 60 min using the GeneAmp PCR System 2700 (Applied Biosystems, Foster City, CA, USA). […] The helicase activity was calculated as the ratio of the signal intensity derived from ssRNA in the sample containing inhibitor to that in the control sample containing DMSO vehicle instead of inhibitor.

[3] = system: Huh-7 cell line harboring the subgenomic replicon RNAs of HCV genotype 1b strain N; test: HCV replicon assay (luciferase); type: cell-based, Hepatitis C virus; conditions: for EC50: Hepatitis C virus, HCV subgenomic replicon, genotype 1b strain N, Huh-7, 72 h, mean ± SD of three replicates, read-out: EC50 (inhibition of HCV replication)
Protocol: The Huh-7 cell line harboring the subgenomic replicon RNAs of HCV genotype 1b strain N [51] was seeded at 2 × 10^4 cells per well in a 48-well plate and incubated at 37 °C for 24 h. The cells were treated with hypericin or sennidin A at various concentrations at 37 °C for 72 h, and then lysed in cell culture lysis reagent (Promega). A luciferase assay system (Promega) was used to determine the luciferase activity, and the luminescence was measured using a Luminescencer-JNR AB-2100 (ATTO, Tokyo, Japan), corresponding to the expression level of the HCV replicon. The anti-HCV activity of hypericin or sennidin A was calculated as the ratio of the intensity of the luminescence in the sample containing inhibitor to that in the control sample containing DMSO vehicle instead of inhibitor.

Cytotoxicity assay (MTS) = type: cell-based; conditions: human, Huh-7 replicon cells, mean ± SD of three replicates, read-out: CC50 (reduction in cell viability)
Protocol: The Huh-7 cell line harboring the subgenomic replicon RNAs of HCV genotype 1b strain N [51] was seeded at 2 × 10^4 cells per well in a 48-well plate and incubated at 37 °C for 24 h. The cells were treated with hypericin or sennidin A at various concentrations at 37 °C for 72 h. The MTS assay was carried out to determine cytotoxicity using a CellTiter 96 aqueous one-solution cell proliferation assay kit (Promega) according to the manufacturer’s instructions. The cytotoxicity of hypericin or sennidin A was calculated as the ratio of the […] in the sample containing inhibitor to that in the control sample containing DMSO vehicle instead of inhibitor.

NS3 ATPase activity = target: T2, NS3 ATPase activity (Hepatitis C virus genotype 1b, UniProt P26662); test: ATPase assay ([γ-32P]ATP hydrolysis, thin-layer chromatography); type: biochemical; conditions: autoradiography, poly(U) RNA, 300 nM NS3, 0–100 µM tested
T2 construct: The full-length HCV NS3 protein, with serine protease and NTPase/helicase activities; made in house
T2 sequence (P26662 1027-1657): as above
Protocol: As the unwinding ability of NS3 helicase is dependent on ATP hydrolysis, the amount of inorganic phosphate (Pi) released from radioisotope-labeled ATP ([γ-^32P]ATP) was measured to determine the effects of hypericin on the ATPase activity of NS3 (Figure 3). The released ^32Pi was separated by thin-layer chromatography and visualized using autoradiography. The density of the upper spots corresponding to Pi, which represents ATPase activity, decreased dose-dependently, particularly in the concentration range of 1–5 µM hypericin. […] It is thus likely that hypericin inhibits NS3 helicase via the inhibition of ATPase activity.
NS3 ATPase activity was determined directly by monitoring [γ-^32P]ATP hydrolysis by thin-layer chromatography, as described previously. The reaction mixture contained 25 mM MOPS-NaOH (pH 7.0), 1 mM dithiothreitol, 5 mM MgCl2, 5 mM CaCl2, 1 mM [γ-^32P]ATP (Muromachi Yakuhin, Tokyo, Japan), 300 nM NS3, 0.1 μg/μL poly(U) ssRNA (Sigma-Aldrich), and increasing concentrations of hypericin in a total reaction volume of 10 μL. The reaction was conducted at 37 °C for 10 min, and stopped by the addition of 10 mM EDTA. […] The cellulose sheet was dried, and the released [γ-^32P]phosphoric acid was visualized using an Image Reader FLA-9000 (Fuji film, Tokyo, Japan).

NS3 RNA-binding activity = target: T3, NS3 RNA-binding activity (Hepatitis C virus genotype 1b, UniProt P26662); test: RNA-binding assay (gel mobility-shift); conditions: 32P-labeled ssRNA, 300 nM NS3, 0–100 µM tested
T3 construct: The full-length HCV NS3 protein, with serine protease and NTPase/helicase activities; made in house
T3 sequence (P26662 1027-1657): as above
Protocol: As RNA binding is required for NS3 helicase activity, the effect of hypericin on NS3 RNA-binding activity was examined by gel mobility-shift assay (Figure 4). As a control, the non-specific binding of ssRNA to bovine serum albumin (BSA) was assessed (lane 2). The density of the upper bands corresponding to the NS3–ssRNA complex, which represents NS3 RNA-binding activity, decreased dose-dependently in the presence of hypericin, particularly in the concentration range of 3–10 µM.
NS3 RNA-binding activity was determined by gel mobility-shift assay, as described previously. The ssRNA (5′-[…]-3′) synthesized by Gene Design (Osaka, Japan) was labeled at the 5′-end with [γ-^32P]ATP (Muromachi Yakuhin) using T4 polynucleotide kinase (Toyobo, Osaka, Japan) at 37 °C for 60 min, and purified using the phenol-chloroform extraction method. The reaction mixture contained 30 mM Tris-HCl (pH 7.5), 100 mM NaCl, 2 mM MgCl2, 1 mM dithiothreitol, 20 U RNasin Plus (Promega), 300 nM NS3, 0.5 nM ^32P-labeled ssRNA, and increasing concentrations of hypericin in a total reaction volume of 20 μL. The reaction was performed at room temperature for 15 min. […] The labeled RNA bands were visualized using an Image Reader FLA-9000 (Fujifilm, Tokyo, Japan).

[4] = fluorescence helicase assay, dsRNA substrate, 240 nM NS3, 5 mM ATP, 37 °C, read-out: IC50 for NS3 helicase inhibition

## O=C1c2ccccc2C(=O)c2c1cc(O)c(O)c2O [1,2,3-trihydroxyanthraquinone]
HCV NS3 helicase [1]; [4]
  IC50: 18 µM

## O=C1c2ccccc2C(=O)c2c(O)c(O)cc(O)c21 [1,2,4-trihydroxyanthraquinone]
HCV NS3 helicase [1]
  IC50: 11 µM

## O=C1c2ccccc2C(=O)c2c1ccc(O)c2O [1,2-dihydroxyanthraquinone]
HCV NS3 helicase [1]
  IC50: > 200 µM

## O=C1c2ccc(O)c(O)c2C(=O)c2c(O)ccc(O)c21 [1,4,5,6-tetrahydroxyanthraquinone]
HCV NS3 helicase [1]; [4]
  IC50: 98 µM

## O=C1c2c(O)ccc(O)c2C(=O)c2c(O)ccc(O)c21 [1,4,5,8-tetrahydroxyanthraquinone]
HCV NS3 helicase [1]; [4]
  IC50: 6 µM

## O=C1c2ccccc2C(=O)c2c(O)ccc(O)c21 [1,4-dihydroxyanthraquinone]
HCV NS3 helicase [1]; [4]
  IC50: 54 µM

## O=C1c2cccc(O)c2C(=O)c2cccc(O)c21 [1,5-dihydroxyanthraquinone]
HCV NS3 helicase [1]; [4]
  IC50: > 200 µM

## O=C1c2cccc(O)c2C(=O)c2c(O)cccc21 [1,8-dihydroxyanthraquinone]
HCV NS3 helicase [1]; [4]
  IC50: > 200 µM

## CC(C)CCC[C@@H](C)[C@H]1CC[C@H]2[C@@H]3CC=C4C[C@@H](OS(=O)(=O)O)CC[C@]4(C)[C@H]3CC[C@]12C [Cholesterol sulfate]
NS3 helicase; positive control of the gel-based helicase assay
  IC50: 1.7 µM

## Cc1cc(O)c2c(=O)c3c(O)cc(O)c4c5c(O)cc(O)c6c(=O)c7c(O)cc(C)c8c1c2c(c34)c(c78)c65 [Hypericin, hypericin]
HCV NS3 helicase [1]
  IC50: 3 µM
HCV NS3 helicase [2]
  NS3 helicase inhibition in gel-based helicase assay: quite similar to that in the fluorescence helicase assay
[3]; CC50/EC50 in Huh-7 replicon cells
  SI, selectivity index (CC50/EC50): 11.7
[3]
  EC50: 3.5 ± 0.2 µM
Cytotoxicity assay (MTS)
  CC50 at 72 h: 41.1 ± 9.5 µM
NS3 ATPase activity
  Concentration range in which NS3 ATPase activity decreased dose-dependently: 1 to 5 µM
NS3 RNA-binding activity
  Concentration range in which NS3 RNA-binding activity decreased dose-dependently: 3 to 10 µM

## O=C(O)c1cc(O)c2c(c1)[C@H]([C@@H]1c3cccc(O)c3C(=O)c3c(O)cc(C(=O)O)cc31)c1cccc(O)c1C2=O [Sennidin A, sennidin A]
HCV NS3 helicase [1]; [4]
  IC50: 0.8 µM
HCV NS3 helicase [2]
  NS3 helicase inhibition in gel-based helicase assay: quite similar to that in the fluorescence helicase assay
[3]
  EC50: > 80 µM
Cytotoxicity assay (MTS)
  CC50 at 72 h: > 80 µM

## O=C1c2c(O)ccc(O)c2C(=O)c2c(NCCNCCO)ccc(NCCNCCO)c21 [mitoxantrone]
NS3 helicase
  IC50: 6.7 µM
